EC50 data for one compound are collected here from article PMC4010452, “Modulation of Mouse Embryonic Stem Cell Proliferation and Neural Differentiation by the P2X7 Receptor” (PLoS ONE, 2014).

The target of the test is T1, P2X7 receptor (Mus musculus, UniProt Q9Z1M0).
T1 construct: gene P2rx7
T1 sequence (Q9Z1M0 1-595): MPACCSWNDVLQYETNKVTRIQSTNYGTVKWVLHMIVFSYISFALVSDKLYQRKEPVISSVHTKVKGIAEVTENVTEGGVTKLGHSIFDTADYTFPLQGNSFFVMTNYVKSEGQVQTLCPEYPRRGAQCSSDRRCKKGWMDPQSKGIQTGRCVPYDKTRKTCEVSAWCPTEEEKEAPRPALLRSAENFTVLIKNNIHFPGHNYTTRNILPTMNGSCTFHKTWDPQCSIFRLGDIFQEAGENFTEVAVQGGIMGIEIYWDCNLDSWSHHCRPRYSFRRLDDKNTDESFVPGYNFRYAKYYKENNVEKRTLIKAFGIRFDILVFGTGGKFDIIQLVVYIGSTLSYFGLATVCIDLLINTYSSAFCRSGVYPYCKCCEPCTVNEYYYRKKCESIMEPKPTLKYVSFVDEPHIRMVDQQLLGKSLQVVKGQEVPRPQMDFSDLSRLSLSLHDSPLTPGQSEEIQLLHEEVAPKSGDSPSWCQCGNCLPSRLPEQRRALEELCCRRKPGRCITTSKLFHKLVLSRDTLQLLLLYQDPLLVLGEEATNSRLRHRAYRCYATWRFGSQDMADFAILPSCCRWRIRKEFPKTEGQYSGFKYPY
In words: agonist-induced intracellular calcium microfluorimetry and single-cell calcium imaging in mouse E14Tg2A ES cells (native receptor). It counts as cell-based. For orientation: A change in cytosolic calcium serves as a functional read-out for many receptors and channels.

`Nc1ncnc2c1ncn2[C@@H]1O[C@H](COP(=O)(O)OP(=O)(O)OP(=O)(O)O)[C@@H](O)[C@H]1O` [ATP]: the half-maximal effective concentration (EC50) is 4.1 ± 1.8 µM.

Broadly, the EC50 is the concentration that produces a half-maximal response.
